Results reported in US7268241B2, “Method for the production of 4-(17$g(a)-methyl substituted 3-oxoestra-4 9-dien-11$g(b)-yl)benzaldehyd-(1e or 1z)-oximes” (Schering AG, priority 2000, dated 2007).

Assays:
[1] = biological target: T1, Progesterone Receptor (Oryctolagus cuniculus, UniProt P06186); experiment: Receptor binding affinity, competitive binding of 3H-ORG 2058 tracer in uterus cytosol; settings: relative binding affinity; uterus cytosol of the estradiol-primed rabbit; tracer 3H-ORG 2058; reference Progesterone = 100%
T1 construct: receptors in the cytosol from animal target organs; from tissue; host or cells: uterus cytosol of estradiol-primed rabbit
T1 sequence (P06186 1-930): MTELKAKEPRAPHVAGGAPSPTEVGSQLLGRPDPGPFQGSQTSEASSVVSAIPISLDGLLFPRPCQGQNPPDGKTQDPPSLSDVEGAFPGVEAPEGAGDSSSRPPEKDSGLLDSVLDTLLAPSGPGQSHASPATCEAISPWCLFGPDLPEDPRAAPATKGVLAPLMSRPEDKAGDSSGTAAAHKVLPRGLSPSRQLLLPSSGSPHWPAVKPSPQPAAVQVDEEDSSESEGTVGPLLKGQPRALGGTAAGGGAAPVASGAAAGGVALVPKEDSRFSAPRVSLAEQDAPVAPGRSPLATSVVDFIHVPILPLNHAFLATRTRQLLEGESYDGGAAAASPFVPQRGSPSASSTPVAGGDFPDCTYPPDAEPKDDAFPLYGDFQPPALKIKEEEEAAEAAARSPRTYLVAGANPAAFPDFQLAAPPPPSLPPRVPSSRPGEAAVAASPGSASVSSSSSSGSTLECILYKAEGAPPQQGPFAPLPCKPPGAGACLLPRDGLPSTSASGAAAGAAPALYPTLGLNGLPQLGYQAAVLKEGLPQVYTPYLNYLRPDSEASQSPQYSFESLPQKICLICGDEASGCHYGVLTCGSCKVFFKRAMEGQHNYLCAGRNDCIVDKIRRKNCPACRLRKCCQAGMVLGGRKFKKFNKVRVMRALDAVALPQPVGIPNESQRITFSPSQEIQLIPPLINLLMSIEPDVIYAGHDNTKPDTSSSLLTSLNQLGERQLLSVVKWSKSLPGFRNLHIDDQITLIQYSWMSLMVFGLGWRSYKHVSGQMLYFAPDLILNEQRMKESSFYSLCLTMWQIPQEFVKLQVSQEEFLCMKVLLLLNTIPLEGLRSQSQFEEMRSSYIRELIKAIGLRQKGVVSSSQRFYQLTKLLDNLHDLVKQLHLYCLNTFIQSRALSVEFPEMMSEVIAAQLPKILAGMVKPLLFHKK
Method: (§1) The receptor binding affinity was determined by competitive binding of a specifically binding ^3H-labeled tracer and the compound to be tested to receptors in the cytosol from animal target organs. In this case, receptor saturation and reaction equilibrium in the case of the following reaction conditions were sought:
(§2) Uterus cytosol of the estradiol-primed rabbit, stored at −30° C., in TED buffer (20 mmol of Tris/HCl, pH 7.4; 1 mmol of ethylenediamine tetraacetate, 2 mmol of dithiothreitol) with 250 mmol of saccharose. • Tracer: ^3H—ORG 2058 • Reference substance: Progesterone Glucocorticoid Receptor: • Thymus cytosol of the adrenalectomized rat, thymi stored at −30° C.; TED buffer • Tracer: ^3H-Dexamethasone, 20 nmol • Reference substance: Dexamethasone

[2] = biological target: T2, Glucocorticoid Receptor (Rattus norvegicus, UniProt P06536); experiment: Receptor binding affinity, competitive binding of 3H-Dexamethasone tracer in thymus cytosol; settings: relative binding affinity; thymus cytosol of the adrenalectomized rat; tracer 3H-Dexamethasone; reference Dexamethasone = 100%
T2 construct: receptors in the cytosol from animal target organs; from tissue; host or cells: thymus cytosol of adrenalectomized rat
T2 sequence (P06536 1-795): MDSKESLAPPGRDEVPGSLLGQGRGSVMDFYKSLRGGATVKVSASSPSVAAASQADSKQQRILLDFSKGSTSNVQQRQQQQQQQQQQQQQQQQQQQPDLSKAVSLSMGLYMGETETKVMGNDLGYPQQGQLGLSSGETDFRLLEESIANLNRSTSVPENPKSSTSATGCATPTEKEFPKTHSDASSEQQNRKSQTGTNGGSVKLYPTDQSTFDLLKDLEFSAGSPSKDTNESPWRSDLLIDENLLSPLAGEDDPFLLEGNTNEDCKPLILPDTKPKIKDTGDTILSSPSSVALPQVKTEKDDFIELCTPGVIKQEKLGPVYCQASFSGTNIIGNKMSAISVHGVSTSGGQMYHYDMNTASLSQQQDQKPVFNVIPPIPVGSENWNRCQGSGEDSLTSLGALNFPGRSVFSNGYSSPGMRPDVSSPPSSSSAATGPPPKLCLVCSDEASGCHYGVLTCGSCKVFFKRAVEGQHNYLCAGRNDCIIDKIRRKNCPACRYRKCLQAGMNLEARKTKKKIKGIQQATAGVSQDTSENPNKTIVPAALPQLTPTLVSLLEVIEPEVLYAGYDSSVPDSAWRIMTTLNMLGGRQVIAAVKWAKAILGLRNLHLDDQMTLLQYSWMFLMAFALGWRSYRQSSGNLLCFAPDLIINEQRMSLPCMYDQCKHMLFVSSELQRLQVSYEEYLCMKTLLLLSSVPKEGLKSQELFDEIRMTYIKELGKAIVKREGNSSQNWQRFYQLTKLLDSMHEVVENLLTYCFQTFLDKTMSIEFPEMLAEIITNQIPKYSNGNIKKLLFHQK
Method: as §1, §2

[3] = tested on: pregnancy in the rat; experiment: Early-abortive action in the rat; type: in vivo; settings: subcutaneous, 5th to 7th day of pregnancy; dose giving complete inhibition of pregnancy
Method: The early-abortive action was determined in the rat after subcutaneous administration from the 5th to the 7th day of pregnancy [administration 0.2 ml/animal/day in benzyl benzoate/castor oil (1+4 v/v)]. The dose indicates what amount must be given to at least 4 animals apiece in comparison to untreated animals, so that a complete inhibition of pregnancy is achieved.

SMILES	Progesterone Receptor [Progesterone = 100%] [1]	Glucocorticoid Receptor [Dexamethasone = 100%] [2]	100% Early-abortive Action in the Rat [3]
CC12CC(c3ccc(C=NO)cc3)C3=C4CCC(=O)C=C4CCC3C1CCC2(O)COCC(F)(F)F (stereo not drawn) [4-[17β-Hydroxy-(17α-(1,1,1-trifluoroethoxymethyl)-3-oxoestra-4,9-dien-11β-yl]benzaldehyde-1E-oxime]	177%	94%	3.0 mg/animal/day
COCC1(O)CCC2C3CCC4=CC(=O)CCC4=C3C(c3ccc(C=NO)cc3)CC21C (stereo not drawn) [4-[17β-Hydroxy-(17α-(methoxymethyl)-3-oxoestra-4,9-dien-11β-] [4-[17β-Hydroxy-17α-(methoxymethyl)-3-oxoestra-4,9-dien-11β-yl]benzaldehyde-1E-oxime]		76%	1.0 mg/animal/day
COCC1(O)CCC2C3CCC4=CC(=O)CCC4=C3C(c3ccc(C=NO)cc3)CC21C (stereo not drawn) [4-[17β-Hydroxy-(17α-(methoxymethyl)-3-oxoestra-4,9-dien-11β-] [4-[17β-hydroxy-17α-(methoxymethyl)-3-oxoestra-4,9-dien-11β-yl]benzaldehyde-1Z-oxime]		67%	
COC[C@]1(OC)CC[C@H]2[C@@H]3CCC4=CC(=O)CCC4=C3[C@@H](c3ccc(/C=N/O)cc3)C[C@@]21C [4-[17β-Methoxy-17α-(methoxymethyl)-3-oxoestra-4,9-dien-11β-yl] benzaldehyde-1E-oxime]	302%	78%	1.0 mg/animal/day
COCC1(OC)CCC2C3CCC4=CC(=O)CCC4=C3C(c3ccc(C=NO)cc3)CC21C (stereo not drawn) [4-[17β-methoxy-17α-(methoxymethyl)-3-oxoestra-4,9-dien-11β-yl]benzaldehyde-1Z-oxime]	126%	52%	1.0 mg/animal/day
CC#C[C@]1(O)CC[C@H]2[C@@H]3CCC4=CC(=O)CCC4=C3[C@@H](c3ccc(N(C)C)cc3)C[C@@]21C [Ru 38 486, reference compound]	685%		3.0 mg/animal/day
